Laboratory results as given in article PMC11775380, “Discovery of Novel Nav1.7-Selective Inhibitors with the 1H-Indole-3-Propionamide Scaffold for Effective Pain Relief” (Research, 2025).

These molecules were tested against T1, human Nav1.7 (hNav1.7) (Homo sapiens, UniProt Q15858) (assay: Whole-cell patch-clamp inhibition of Nav1.7 currents in transfected HEK293T cells). Details: 10 μM compound; inhibition rate of Nav1.7.
T1 construct: expressed in transfected cells; host or cells: HEK293T
T1 sequence (Q15858 whole entry): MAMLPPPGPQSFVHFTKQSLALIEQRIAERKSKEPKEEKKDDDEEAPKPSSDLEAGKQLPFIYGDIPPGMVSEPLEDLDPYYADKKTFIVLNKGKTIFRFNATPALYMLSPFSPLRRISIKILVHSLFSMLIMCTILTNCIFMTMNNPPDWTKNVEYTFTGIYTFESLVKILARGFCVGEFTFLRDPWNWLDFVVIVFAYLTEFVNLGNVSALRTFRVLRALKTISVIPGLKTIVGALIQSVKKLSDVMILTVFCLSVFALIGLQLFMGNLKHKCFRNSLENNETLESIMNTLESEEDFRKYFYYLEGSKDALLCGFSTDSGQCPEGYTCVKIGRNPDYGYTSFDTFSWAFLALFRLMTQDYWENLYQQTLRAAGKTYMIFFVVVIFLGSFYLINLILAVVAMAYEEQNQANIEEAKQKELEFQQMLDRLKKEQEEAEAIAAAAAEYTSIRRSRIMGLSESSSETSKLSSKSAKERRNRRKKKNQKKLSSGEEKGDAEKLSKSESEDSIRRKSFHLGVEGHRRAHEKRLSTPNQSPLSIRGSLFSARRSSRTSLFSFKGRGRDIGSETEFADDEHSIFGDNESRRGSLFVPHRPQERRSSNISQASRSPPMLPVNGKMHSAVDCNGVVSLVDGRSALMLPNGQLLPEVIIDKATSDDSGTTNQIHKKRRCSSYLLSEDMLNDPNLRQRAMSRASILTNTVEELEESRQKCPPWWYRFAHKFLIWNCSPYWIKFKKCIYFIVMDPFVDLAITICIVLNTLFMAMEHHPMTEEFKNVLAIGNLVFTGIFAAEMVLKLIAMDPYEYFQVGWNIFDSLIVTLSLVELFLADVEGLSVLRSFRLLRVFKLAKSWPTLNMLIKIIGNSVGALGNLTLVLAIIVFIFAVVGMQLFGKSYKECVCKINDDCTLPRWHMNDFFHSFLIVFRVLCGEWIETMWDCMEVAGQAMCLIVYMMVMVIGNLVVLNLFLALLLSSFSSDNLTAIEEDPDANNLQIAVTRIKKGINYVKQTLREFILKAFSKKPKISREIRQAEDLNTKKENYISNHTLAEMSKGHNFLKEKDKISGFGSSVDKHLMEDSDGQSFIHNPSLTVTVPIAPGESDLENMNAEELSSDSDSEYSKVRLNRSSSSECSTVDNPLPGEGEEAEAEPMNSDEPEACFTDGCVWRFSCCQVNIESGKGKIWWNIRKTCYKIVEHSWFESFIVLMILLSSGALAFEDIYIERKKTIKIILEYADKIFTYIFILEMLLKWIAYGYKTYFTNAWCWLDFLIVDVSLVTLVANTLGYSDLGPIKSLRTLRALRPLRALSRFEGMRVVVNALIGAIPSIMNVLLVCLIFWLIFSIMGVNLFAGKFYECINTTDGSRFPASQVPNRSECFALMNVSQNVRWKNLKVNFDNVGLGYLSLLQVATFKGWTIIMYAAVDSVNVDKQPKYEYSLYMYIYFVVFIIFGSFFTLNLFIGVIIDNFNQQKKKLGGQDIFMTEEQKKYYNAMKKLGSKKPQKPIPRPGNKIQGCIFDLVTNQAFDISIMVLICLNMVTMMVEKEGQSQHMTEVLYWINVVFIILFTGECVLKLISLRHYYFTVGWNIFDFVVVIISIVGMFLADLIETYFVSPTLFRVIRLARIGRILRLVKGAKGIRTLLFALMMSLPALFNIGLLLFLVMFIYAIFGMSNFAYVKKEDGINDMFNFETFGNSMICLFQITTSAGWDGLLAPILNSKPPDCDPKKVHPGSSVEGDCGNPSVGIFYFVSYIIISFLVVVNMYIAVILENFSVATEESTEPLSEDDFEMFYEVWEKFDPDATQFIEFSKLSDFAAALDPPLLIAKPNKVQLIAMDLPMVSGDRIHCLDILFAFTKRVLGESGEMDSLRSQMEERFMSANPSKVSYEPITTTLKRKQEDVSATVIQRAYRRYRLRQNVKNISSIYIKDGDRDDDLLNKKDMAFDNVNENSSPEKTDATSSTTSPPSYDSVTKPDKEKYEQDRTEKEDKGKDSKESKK
T1 sequence (Q07699 19-218 partner): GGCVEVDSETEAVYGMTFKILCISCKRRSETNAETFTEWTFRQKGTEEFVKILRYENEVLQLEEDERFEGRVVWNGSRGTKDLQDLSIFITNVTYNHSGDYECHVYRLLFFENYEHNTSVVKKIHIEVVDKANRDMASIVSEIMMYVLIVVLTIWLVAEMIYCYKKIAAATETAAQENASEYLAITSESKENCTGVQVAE
T1 sequence (O60939 30-215 partner): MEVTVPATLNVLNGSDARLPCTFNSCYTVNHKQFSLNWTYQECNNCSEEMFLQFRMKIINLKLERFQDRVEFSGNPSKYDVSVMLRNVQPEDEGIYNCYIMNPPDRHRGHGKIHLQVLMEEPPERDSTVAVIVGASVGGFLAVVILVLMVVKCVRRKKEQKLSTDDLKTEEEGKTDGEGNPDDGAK
Format: cell-based
Protocol: Human embryonic kidney (HEK) 293T (ATCC CRL-3216) and ND7/23 cells (National Collection of Authenticated Cell Cultures SCSP-5026) were cultured under standard conditions (5% CO2, 37 °C) in Dulbecco’s modified Eagle’s medium (DMEM) containing 10% fetal bovine serum and 1% penicillin-streptomycin solution(all from Gibco, Thermo Fisher Scientific, Waltham, MA, USA). When the cells reached 70% to 90% confluence, human Nav1.2 (hNav1.2), human Nav1.3 (hNav1.3), human Nav1.4 (hNav1.4), human Nav1.5 (hNav1.5), and mouse Nav1.6 (mNav1.6) channel plasmids were cotransfected with enhanced green fluorescent protein (eGFP) into HEK293T cells. Additionally, plasmids expressing β1 and β2 subunits tagged with eGFP were cotransfected with the human Nav1.7 (hNav1.7) channel into HEK293T cells. Human Nav1.8 (hNav1.8) was transiently transfected into ND7/23 cells, along with eGFP, using Lipofectamine 2000 (Invitrogen), adhering strictly to the manufacturer’s protocol. For manual patch-clamp experiments, the cells were plated onto glass coverslips and used within 20 to 48 h of transfection.
Whole-cell patch-clamp recordings were conducted at 25 ± 2 °C, utilizing an EPC 10USB patch-clamp amplifier (HEKA Elektronik, Lambrecht, Germany). Pipettes, with access resistance between 2.0 and 3.0 MΩ, were pulled from borosilicate glass capillary tubes using a 2-step vertical microelectrode puller (PC-10, Narishige Group, Tokyo, Japan). Voltage-clamp recordings were obtained with PatchMaster software v2 × 73 (HEKA Elektronik) 5 min after establishing whole-cell configuration, sampled at 20 kHz, and filtered at 5 kHz. To minimize voltage errors, 80% series resistance compensation was applied. Pipettes were filled with 140 mM CsF, 10 mM NaCl, 1 mM EGTA, and 10 mM HEPES (pH=7.4, adjusted with CsOH). The external solution contained 140 mM NaCl, 2 mM CaCl2, 1 mM MgCl2, 5 mM KCl, 10 mM HEPES, and 10 mM glucose (pH=7.4, adjusted with NaOH). IC50 values were determined in HEK293T or ND7/23 cell lines by voltage clamping at −80 mV, followed by stepping to the V1/2 of inactivation for 8 s to facilitate compound binding.
In the case of “(C)C(CC(=O)NCCC1=CC=CC=N1)C2=CN(C3=CC=CC=C32)CC4=CC=CC=C4 [B37]”, the “Inhibitory activity (10 μM)” value is reported as 19.13% ± 16.30%.

Same assay, conditions: HEK-293T; 10 μM compound; inhibition rate of Nav1.7; read-out: Inhibitory activity (10 μM)
Work on `O=C(CC(c1ccc(C(F)(F)F)cc1)c1cn(Cc2ccc(F)cc2)c2ccccc12)NCCc1ccccn1` (stereo not shown) [WN1, C1=CC=C2C(=C1)C(=CN2CC3=CC=C(C=C3)F)C(CC(=O)NCCC4=CC=CC=N4)C5=CC=C(C=C5)C(F)(F)F] yielded an inhibition at 10 µM of 73.2%. Molecule `O=C(CC(c1ccc(C(F)(F)F)cc1)c1cn(Cc2ccccc2)c2ccccc12)NCCN1CCCC1` (stereo not shown) [B11, C1CCN(C1)CCNC(=O)CC(C2=CC=C(C=C2)C(F)(F)F)C3=CN(C4=CC=CC=C43)CC5=CC=CC=C5] has an inhibition at 10 µM of 7.97%. For `O=C(CC(c1cccc(Cl)c1)c1cn(Cc2ccc(F)cc2)c2ccccc12)NCCc1ccccn1` (stereo not shown) [B27, C1=CC=C2C(=C1)C(=CN2CC3=CC=C(C=C3)F)C(CC(=O)NCCC4=CC=CC=N4)C5=CC(=CC=C5)Cl], the inhibition at 10 µM was 16%. `O=C(C1CCCN1C(=O)c1csc(Nc2ccc(F)cc2)n1)N1CCOCC1` (stereo not shown) [B39, C1CC(N(C1)C(=O)C2=CSC(=N2)NC3=CC=C(C=C3)F)C(=O)N4CCOCC4] was tested, and the inhibition at 10 µM was 16.7%. `COc1ccc(C(CC(=O)NCCc2ccccn2)c2cn(Cc3ccc(F)cc3)c3ccccc23)cc1` (stereo not shown) [B20, COC1=CC=C(C=C1)C(CC(=O)NCCC2=CC=CC=N2)C3=CN(C4=CC=CC=C43)CC5=CC=C(C=C5)F] showed an inhibition at 10 µM of 37.5%. Molecule `Cn1cc(C(CC(=O)NCCc2ccccn2)c2ccc(C(F)(F)F)cc2)c2ccccc21` (stereo not shown) [B38, CN1C=C(C2=CC=CC=C21)C(CC(=O)NCCC3=CC=CC=N3)C4=CC=C(C=C4)C(F)(F)F] has an inhibition at 10 µM of 13.9%. `COc1ccc(Cn2cc(C(CC(=O)NCCc3ccccn3)c3ccc(OC)cc3)c3ccccc32)cc1` (stereo not shown) [B29, COC1=CC=C(C=C1)CN2C=C(C3=CC=CC=C32)C(CC(=O)NCCC4=CC=CC=N4)C5=CC=C(C=C5)OC] was tested, and the inhibition at 10 µM was 9.42%. `O=C(CC(c1ccc(C(F)(F)F)cc1)c1cn(Cc2ccc(F)cc2)c2ccccc12)NCc1ccncc1` (stereo not shown) [B23, C1=CC=C2C(=C1)C(=CN2CC3=CC=C(C=C3)F)C(CC(=O)NCC4=CC=NC=C4)C5=CC=C(C=C5)C(F)(F)F] showed an inhibition at 10 µM of 18.2%. `O=C1OC(Nc2ccc(S(=O)(=O)Nc3ccccn3)cc2)c2ccccc21` (stereo not shown) [A10, C1=CC=C2C(=C1)C(OC2=O)NC3=CC=C(C=C3)S(=O)(=O)NC4=CC=CC=N4] showed an inhibition at 10 µM of 2.74%. `O=C(CC(c1cccc(Oc2ccc(Cl)cc2)c1)c1cn(Cc2ccc(F)cc2)c2ccccc12)NCCc1ccccn1` (stereo not shown) [B13, C1=CC=C2C(=C1)C(=CN2CC3=CC=C(C=C3)F)C(CC(=O)NCCC4=CC=CC=N4)C5=CC(=CC=C5)OC6=CC=C(C=C6)Cl] gave an inhibition at 10 µM of 6.28%. `CCCCNC(=O)CC(c1cccc(C)c1)c1cn(Cc2ccc(F)cc2)c2ccccc12` (stereo not shown) [B7, CCCCNC(=O)CC(C1=CC=CC(=C1)C)C2=CN(C3=CC=CC=C32)CC4=CC=C(C=C4)F] showed an inhibition at 10 µM of 1.84%. In the case of `Cc1cccc(C(CC(=O)NCCC(C)C)c2cn(Cc3ccc(F)cc3)c3ccccc23)c1` (stereo not shown) [B6, CC1=CC(=CC=C1)C(CC(=O)NCCC(C)C)C2=CN(C3=CC=CC=C32)CC4=CC=C(C=C4)F], the inhibition at 10 µM is reported as 7.88%. For `O=C(Nc1ccccc1C(F)(F)F)c1ccc2c(c1)C(=O)N(Cc1cccnc1)C2=O` [A14, C1=CC=C(C(=C1)C(F)(F)F)NC(=O)C2=CC3=C(C=C2)C(=O)N(C3=O)CC4=CN=CC=C4], the inhibition at 10 µM was 2.68%. `COc1ccc(S(=O)(=O)Nc2ccc3c(c2)CCCN3C(=O)c2ccccc2)cc1OC` [A2, COC1=C(C=C(C=C1)S(=O)(=O)NC2=CC3=C(C=C2)N(CCC3)C(=O)C4=CC=CC=C4)OC] showed an inhibition at 10 µM of 36.6%. With `O=C(CC(c1ccc(C(F)(F)F)cc1)c1cn(Cc2ccc(F)cc2)c2ccccc12)N1CCCC1` (stereo not shown) [B25, C1CCN(C1)C(=O)CC(C2=CC=C(C=C2)C(F)(F)F)C3=CN(C4=CC=CC=C43)CC5=CC=C(C=C5)F] the inhibition at 10 µM was 23.1%. In the case of `CCN1CCN(C(=O)CC(c2ccc(C(F)(F)F)cc2)c2cn(Cc3ccc(F)cc3)c3ccccc23)CC1` (stereo not shown) [B21, CCN1CCN(CC1)C(=O)CC(C2=CC=C(C=C2)C(F)(F)F)C3=CN(C4=CC=CC=C43)CC5=CC=C(C=C5)F], the inhibition at 10 µM is reported as 71.4%.

Same assay, conditions: −80 mV holding, step to V1/2 of inactivation for 8 s; HEK293T
With `O=C(CC(c1ccc(C(F)(F)F)cc1)c1cn(Cc2ccc(F)cc2)c2ccccc12)NCCc1ccccn1` (stereo not shown) [WN1, C1=CC=C2C(=C1)C(=CN2CC3=CC=C(C=C3)F)C(CC(=O)NCCC4=CC=CC=N4)C5=CC=C(C=C5)C(F)(F)F] the IC50 was 3960 ± 140 nM. `Cc1ccc(Cn2cc([C@@H](CC(=O)NCCN(C)C)c3ccc(F)cc3)c3ccccc32)cc1` [WN2-S] was tested, and the IC50 was 113 ± 36.9 nM.
